# Data: patent publication US20220396565A1 (Hoffmann-La Roche Inc., priority 2020, published 2022)
# Counter-ions that a name gives are not always drawn.
# Test system: Acinetobacter baumannii ATCC17961
# Test: Antimicrobial susceptibility testing: 90% growth inhibitory concentration (IC90) determination, Iso-Sensitest broth
# Type: cell-based
# Conditions: Acinetobacter baumannii, ATCC17961, 90% growth inhibitory concentration, Acinetobacter baumannii ATCC17961, Iso-Sensitest broth; read-out: ATCC 17961 IC90
# In short: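 Growth at OD600 was monitored every 20 min for 16 h at 35±2 °C, with bacteria inoculated at ~5×10^(5) CFU/ml into Iso-Sensitest medium. Compounds were tested as 10-point twofold dilutions (e.g. 10–0.02 μM final). The 90% inhibitory concentration comes from the log-phase growth.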
row,IC90,SMILES
1,70 nM,"Cn1c(-c2ccc(OC(F)F)c(F)c2F)cnc1C(=O)Nc1ccc(C(=O)N2CCN(C(=O)C3CCN(C(=O)C4CNC4)CC3)CC2)c(Cl)c1 [Example 174, N-[4-[4-[1-(azetidine-3-carbonyl)piperidine-4-carbonyl]piperazine-1-carbonyl]-3-chloro-phenyl]-5-[4-(difluoromethoxy)-2,3-difluoro-phenyl]-1-methyl-imidazole-2-carboxamide formate]"
2,140 nM,"COc1ccc(-c2cnc(C(=O)Nc3ccc(C(=O)N4C[C@@H]5CN(C(=O)[C@@H]6CCNC6)C[C@@H]5C4)c(Cl)c3)n2C)c(F)c1F [Example 188, N-[4-[(3aR,6aS)-5-[(3R)-pyrrolidine-3-carbonyl]-1,3,3a,4,6,6a-hexahydropyrrolo[3,4-c]pyrrole-2-carbonyl]-3-chloro-phenyl]-5-(2,3-difluoro-4-methoxy-phenyl)-1-methyl-imidazole-2-carboxamide formate]"
3,90 nM,"COc1ccc(-c2cnc(C(=O)Nc3ccc(C(=O)N4CCN(C(=O)[C@@H]5C[C@](C)(O)CN5)CC4)c(Cl)c3)n2C)c(F)c1F [Example 232, N-[3-chloro-4-[4-[(2S,4S)-4-hydroxy-4-methyl-pyrrolidine-2-carbonyl]piperazine-1-carbonyl]phenyl]-5-(2,3-difluoro-4-methoxy-phenyl)-1-methyl-imidazole-2-carboxamide formate]"
4,120 nM,"COc1ccc(-c2cnc(C(=O)Nc3ccc(C(=O)N4CCN(C(=O)C5CC6(CNC6)C5)CC4)c(C)c3)n2C)c(Cl)c1F [Example 119, N-[4-[4-(2-azaspiro[3.3]heptane-6-carbonyl)piperazine-1-carbonyl]-3-methyl-phenyl]-5-(2-chloro-3-fluoro-4-methoxy-phenyl)-1-methyl-imidazole-2-carboxamide; formic acid]"
5,100 nM,"COc1ccc(-c2cnc(C(=O)Nc3ccc(C(=O)N4C[C@@H]5CN(C(=O)C6CCNCC6)C[C@@H]5C4)c(Cl)c3)n2C)c(F)c1F [Example 186, N-[4-[(3aR,6aS)-5-(piperidine-4-carbonyl)-1,3,3a,4,6,6a-hexahydropyrrolo[3,4-c]pyrrole-2-carbonyl]-3-chloro-phenyl]-5-(2,3-difluoro-4-methoxy-phenyl)-1-methyl-idazole-2-carboxamide formate]"
6,50 nM,"Cn1c(-c2ccc(OCF)c(F)c2Cl)cnc1C(=O)Nc1ccc(C(=O)N2CCC(C(=O)N[C@@H]3CNC[C@H]3O)CC2)c(Cl)c1 [Example 53, 1-[2-chloro-4-[[5-[2-chloro-3-fluoro-4-(fluoromethoxy)phenyl]-1-methyl-imidazole-2-carbonyl]amino]benzoyl]-N-[(3R,4R)-4-hydroxypyrrolidin-3-yl]piperidine-4-carboxamide formate]"
7,70 nM,"COc1ccc(-c2cnc(C(=O)Nc3ccc(C(=O)N4CCN(C(=O)CC5(O)CCNCC5)CC4)c(Cl)c3)n2C)c(Cl)c1F [Example 182, 5-(2-chloro-3-fluoro-4-methoxy-phenyl)-N-[3-chloro-4-[4-[2-(4-hydroxy-4-piperidyl)acetyl]piperazine-1-carbonyl]phenyl]-1-methyl-imidazole-2-carboxamide formate]"
8,110 nM,"COc1ccc(-c2cnc(C(=O)Nc3ccc(C(=O)N4CCN(C(=O)C5CCC(=O)NC5)CC4)c(Cl)c3)n2C)c(F)c1F (stereo not drawn) [Example 125, N-[3-chloro-4-[4-(6-oxopiperidine-3-carbonyl)piperazine-1-carbonyl]phenyl]-5-(2,3-difluoro-4-methoxy-phenyl)-1-methyl-imidazole-2-carboxamide]"
9,480 nM,"CCc1cc(NC(=O)c2ncc(-c3ccc(OC)c(F)c3F)n2C)ccc1C(=O)N1CCC(C(=O)NCCOCCN(C)C)CC1 [Example 99, 1-[4-[[5-(2,3-difluoro-4-methoxy-phenyl)-1-methyl-imidazole-2-carbonyl]amino]-2-ethyl-benzoyl]-N-[2-[2-(dimethylamino)ethoxy]ethyl] piperidine-4-carboxamid]"
10,50 nM,"COc1ccc(-c2cnc(C(=O)Nc3ccc(C(=O)N4CCN(C(=O)[C@H]5C[C@@H](N)C5)CC4)c(Cl)c3)n2C)c(F)c1F [Example 140, N-[4-[4-(3-aminocyclobutanecarbonyl)piperazine-1-carbonyl]-3-chloro-phenyl]-5-(2,3-difluoro-4-methoxy-phenyl)-1-methyl-imidazole-2-carboxamide formate]"
11,40 nM,"COc1ccc(-c2cnc(C(=O)Nc3ccc(C(=O)N4CCN(C(=O)CN5CCC(O)C5)CC4)c(Cl)c3)n2C)c(F)c1F (stereo not drawn) [Example 294, N-[3-chloro-4-[4-[2-(3-hydroxypyrrolidin-1-yl)acetyl]piperazine-1-carbonyl]phenyl]-5-(2,3-difluoro-4-methoxy-phenyl)-1-methyl-imidazole-2-carboxamide formate]"
12,80 nM,"COc1ccc(-c2cnc(C(=O)Nc3ccc(C(=O)N4CCN(C(=O)[C@@H]5CCN5)CC4)c(Cl)c3)n2C)c(F)c1F [Example 150, N-[4-[4-[(2S)-azetidine-2-carbonyl]piperazine-1-carbonyl]-3-chloro-phenyl]-5-(2,3-difluoro-4-methoxy-phenyl)-1-methyl-imidazole-2-carboxamide formate]"
13,150 nM,"COc1ccc(-c2cnc(C(=O)Nc3ccc(C(=O)N4CCN(S(=O)(=O)C5CCNC5)CC4)c(Cl)c3)n2C)c(F)c1F (stereo not drawn) [Example 241, N-[3-chloro-4-(4-pyrrolidin-3-ylsulfonylpiperazine-1-carbonyl)phenyl]-5-(2,3-difluoro-4-methoxy-phenyl)-1-methyl-imidazole-2-carboxamide]"
14,40 nM,"Cn1c(-c2ccc(OCC#N)c(F)c2Cl)cnc1C(=O)Nc1ccc(C(=O)N2CCN(C(=O)[C@@H]3CCNC3)CC2)c(Cl)c1 [Example 254, 5-[2-chloro-4-(cyanomethoxy)-3-fluoro-phenyl]-N-[3-chloro-4-[4-[(3R)-pyrrolidine-3-carbonyl]piperazine-1-carbonyl]phenyl]-1-methyl-imidazole-2-carboxamide formate]"
15,180 nM,"COc1ccc(-c2cnc(C(=O)Nc3ccc(C(=O)N4CCN(C(=O)[C@@H]5CCNC[C@@H]5O)CC4)c(Cl)c3)n2C)c(F)c1F [Example 228, N-[3-chloro-4-[4-[(3R,4R)-3-hydroxypiperidine-4-carbonyl]piperazine-1-carbonyl]phenyl]-5-(2,3-difluoro-4-methoxy-phenyl)-1-methyl-imidazole-2-carboxamide]"
16,270 nM,"COc1ccc(-c2cnc(C(=O)Nc3ccc(C(=O)N4CCN(C(=O)CC5NC(=O)NC5=O)CC4)c(Cl)c3)n2C)c(F)c1F (stereo not drawn) [Example 128, N-[3-chloro-4-[4-[2-(2,5-dioxoimidazolidin-4-yl)acetyl]piperazine-1-carbonyl]phenyl]-5-(2,3-difluoro-4-methoxy-phenyl)-1-methyl-imidazole-2-carboxamide]"
17,180 nM,"COc1ccc(-c2cnc(C(=O)Nc3ccc(C(=O)N4CCN(C(=O)[C@@H]5CCNC[C@@H]5O)CC4)c(C)c3)n2C)c(F)c1F [Example 234, 5-(2,3-difluoro-4-methoxy-phenyl)-N-[4-[4-[(3R,4R)-3-hydroxypiperidine-4-carbonyl]piperazine-1-carbonyl]-3-methyl-phenyl]-1-methyl-imidazole-2-carboxamide formate]"
18,6060 nM,"CN(C)C(=O)c1ccc(-c2cnc(C(=O)Nc3ccc(C(=O)N4CCN(C(=O)C5CCNCC5)CC4)c(Cl)c3)n2C)c(F)c1F [Example 263, N-[3-chloro-4-[4-(piperidine-4-carbonyl)piperazine-1-carbonyl]phenyl]-5-[4-(dimethylcarbamoyl)-2,3-difluoro-phenyl]-1-methyl-imidazole-2-carboxamide formate]"
19,40 nM,"COc1ccc(-c2cnc(C(=O)Nc3ccc(C(=O)N4CCN(C(=O)CCN)CC4)c(Cl)c3)n2C)c(F)c1F [Example 123, N-[4-[4-(3-aminopropanoyl)piperazine-1-carbonyl]-3-chloro-phenyl]-5-(2,3-difluoro-4-methoxy-phenyl)-1-methyl-imidazole-2-carboxamide formate]"
20,40 nM,"COc1ccc(-c2cnc(C(=O)Nc3ccc(C(=O)N4CCN(C(=O)CC5CCNCC5)CC4)c(Cl)c3)n2C)c(F)c1F [Example 142, N-[3-chloro-4-[4-[2-(4-piperidyl)acetyl]piperazine-1-carbonyl]phenyl]-5-(2,3-difluoro-4-methoxy-phenyl)-1-methyl-imidazole-2-carboxamide; formic acid]"
21,140 nM,"COc1ccc(-c2cnc(C(=O)Nc3ccc(C(=O)N4CC(C(=O)N5CC(CN)C5)C4)c(Cl)c3)n2C)c(F)c1F [Example 66, N-[4-[3-[3-(aminomethyl)azetidine-1-carbonyl]azetidine-1-carbonyl]-3-chloro-phenyl]-5-(2,3-difluoro-4-methoxy-phenyl)-1-methyl-imidazole-2-carboxamide formate]"

# Same assay, conditions: Acinetobacter baumannii, ATCC17961, read-out: ATCC 17961 IC90
row,SMILES,IC90
1,Cn1c(-c2ccc(OCC#N)c(F)c2F)cnc1C(=O)Nc1ccc(C(=O)N2CCN(C(=O)N[C@@H]3CNC[C@H]3O)CC2)c(Cl)c1 [Example 7],70 nM
2,"Cn1c(-c2ccc(OC(F)F)c(F)c2F)cnc1C(=O)Nc1ccc(C(=O)N2CCC(C(=O)NCC3CNC3)CC2)c(Cl)c1 [Example 245, N-(Azetidin-3-ylmethyl)-1-[2-chloro-4-[[5-[4-(difluoromethoxy)-2,3-difluoro-phenyl]-1-methyl-imidazole-2-carbonyl]amino]benzoyl]piperidine-4-carboxamide trifluoroacetate]",30 nM
3,"COc1ccc(-c2cnc(C(=O)Nc3ccc(C(=O)N4CCC(CCN)CC4)c(Cl)c3)n2C)c(F)c1F [Example 17, N-[4-[4-(2-Aminoethyl)piperidine-1-carbonyl]-3-chloro-phenyl]-5-(2,3-difluoro-4-methoxy-phenyl)-1-methyl-imidazole-2-carboxamide formate]",30 nM
